Results taken from US9110076B2, “Method for quantifying modified peptides” (HVIVO SERVICES LIMITED, priority 2009, dated 2015).

What was measured:
[1] = system: AML-193; test: Sensitivity of AML cell lines to drug treatment (MTS assay); assay type: cell-based; details: 72 h
Experimental: (§1) Sensitivity of AML cell lines to drug treatment. Eight cell lines (AML-193, CMK, CTS, HEL, Kasumi-1, KG-1, MV4-11 and P31/FUJ) were seeded in 96 well plates at 1×10^5 cell/ml in triplicate for each condition. After a recovery period of 2 h, cells were treated with increasing concentrations (1 nM, 10 nM, 100 nM, 1 μM and 10 μM) of FLT3 inhibitor, MEK I inhibitor, JAK I inhibitor, LY294002, PI-103 and IC87114. As controls, cells were both treated with the vehicle (DMSO) and left untreated. After 72 hours treatment, cell viability was assessed by MTS assay (CellTiter 96® AQueous One Solution Cell Proliferation assay, Promega Corporation, Madison, Wis., USA).

[2] = system: HEL; test: as above; assay type: cell-based; details: 72 h
Experimental: as §1

[3] = system: MV4-11; test: as above; assay type: cell-based; details: 72 h
Experimental: as §1

[4] = system: P31/FUJ; test: as above; assay type: cell-based; details: 72 h
Experimental: as §1

[5] = system: NIH-3T3 fibroblasts; test: TIQUAS quantification of phosphorylation sites in starved, serum-stimulated cells with or without wortmannin pre-incubation; assay type: cell-based, murine; details: of 2,350 phosphorylated peptides quantified; WM treatment of cells prior to serum stimulation; 4 experiments
Experimental: The novel quantitative techniques of the invention were used to quantify phosphorylation sites in NIH-3T3 fibroblasts, which were starved and then stimulated with serum with or without pre-incubation with the pan-PI3K inhibitor wortmannin (WM). These experiments were performed 4 times. […] Cells were treated as indicated, lysed with a urea-based buffer to obtain nuclear as well as cytosolic proteins and proteins digested. Resultant phosphorylated peptides were enriched by IMAC and TiO2 chromatography and quantified by LC-MS using a computer program developed by the inventors ([…]) (Cutillas and Vanhaesebroeck, Molecular & Cellular Proteomics 6, 1560-1573 (2007)). FIG. 2(B) gives a summary of the data obtained and a snapshot of the data sorted by probability.

SMILES: CC(C)(C)c1nc2c3cc[nH]c(=O)c3c3cc(F)ccc3c2[nH]1 [JAK I]
- sensitivity of cell line to inhibitor (survival by MTS assay) [1]: sensitive
- sensitivity of cell line to inhibitor (survival by MTS assay) [2]: resistant

SMILES: Oc1cccc(-c2nc(N3CCOCC3)c3oc4ncccc4c3n2)c1 [PI-103]
- sensitivity of cell line to inhibitor (survival by MTS assay) [3]: sensitive
- sensitivity of cell line to inhibitor (survival by MTS assay) [4]: resistant

SMILES: COC[C@H]1OC(=O)c2coc3c2[C@@]1(C)C1=C(C3=O)[C@@H]2CCC(=O)[C@@]2(C)C[C@H]1OC(C)=O [WM, wortmannin]
- phosphorylated peptides significantly (p<0.05) affected by WM treatment [5]: 265
